The results in this text go back to ChEMBL document CHEMBL5465560, “Selectivity Literature for EUbOPEN Chemogenomic Library” (2024).

The target of test [1] is eIF-2-alpha kinase GCN2 (Homo sapiens) (UniProt Q9P2K8). Put plainly: Selectivity interaction (ActivX KiNativ screen (ex vivo kinase selectivity in human PBMCs)) EUB0001619a EIF2AK4. Type of test: cell-based. The note with it: PBMC, at 1 µM.
Test [2] addresses Serine/threonine-protein kinase MARK2 (Homo sapiens) (UniProt Q7KZI7). Put plainly: Selectivity interaction (ActivX KiNativ screen (kinase selectivity in THP-1 cell lysates)) EUB0000639a MARK2. Type of test: subcellular. The note with it: lysate, at 5 µM.
Test [3] has as its target Serine/threonine-protein kinase mTOR (Homo sapiens, UniProt P42345). Put plainly: Selectivity interaction (Kinase panel (Invitrogen)) EUB0000639a MTOR. The note with it: at 200 nM.
Test [4] addresses Cyclin-dependent kinase 7 (Homo sapiens, UniProt P50613). Put plainly: Selectivity interaction (KinomeScan (DiscoverX)) EUB0000045b CDK7.
For test [5], the target named is T1, Dual specificity protein kinase TTK (Homo sapiens) (UniProt P33981).
T1 sequence (whole entry): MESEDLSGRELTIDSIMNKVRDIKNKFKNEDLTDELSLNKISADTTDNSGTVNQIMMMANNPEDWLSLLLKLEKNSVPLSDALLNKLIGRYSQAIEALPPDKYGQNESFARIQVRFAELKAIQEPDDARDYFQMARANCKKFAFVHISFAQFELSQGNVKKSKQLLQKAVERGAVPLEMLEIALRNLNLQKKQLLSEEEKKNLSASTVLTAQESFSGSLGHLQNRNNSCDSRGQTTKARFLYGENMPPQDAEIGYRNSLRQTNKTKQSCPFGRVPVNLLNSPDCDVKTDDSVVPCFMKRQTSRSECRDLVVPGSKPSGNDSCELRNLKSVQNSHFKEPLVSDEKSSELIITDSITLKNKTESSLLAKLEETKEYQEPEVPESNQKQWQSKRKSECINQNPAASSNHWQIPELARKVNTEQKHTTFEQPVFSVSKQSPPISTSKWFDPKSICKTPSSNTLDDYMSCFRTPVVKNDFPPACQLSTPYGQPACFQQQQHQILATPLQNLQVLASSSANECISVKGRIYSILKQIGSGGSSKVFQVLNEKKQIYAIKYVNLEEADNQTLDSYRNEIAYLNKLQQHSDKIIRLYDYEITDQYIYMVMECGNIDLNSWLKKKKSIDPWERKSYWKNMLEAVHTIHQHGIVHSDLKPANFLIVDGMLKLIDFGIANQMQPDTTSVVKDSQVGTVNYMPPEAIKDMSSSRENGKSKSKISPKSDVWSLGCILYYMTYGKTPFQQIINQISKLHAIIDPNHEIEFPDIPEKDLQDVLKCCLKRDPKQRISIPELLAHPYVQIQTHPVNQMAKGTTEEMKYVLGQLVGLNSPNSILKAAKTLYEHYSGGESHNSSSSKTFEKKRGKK
Nature of the test: Selectivity interaction (KinomeScan (DiscoverX)) EUB0000655a TTK. The conditions noted are these: at 10 µM.

The target in test [6] is Serine/threonine-protein kinase VRK2 (Homo sapiens) (UniProt Q86Y07). Nature of the test: Selectivity interaction (KinomeScan (DiscoverX)) EUB0000655a VRK2. The note with it: at 10 µM.
Chain of Serine/threonine-protein kinase VRK2 (Homo sapiens) (Q86Y07 whole entry): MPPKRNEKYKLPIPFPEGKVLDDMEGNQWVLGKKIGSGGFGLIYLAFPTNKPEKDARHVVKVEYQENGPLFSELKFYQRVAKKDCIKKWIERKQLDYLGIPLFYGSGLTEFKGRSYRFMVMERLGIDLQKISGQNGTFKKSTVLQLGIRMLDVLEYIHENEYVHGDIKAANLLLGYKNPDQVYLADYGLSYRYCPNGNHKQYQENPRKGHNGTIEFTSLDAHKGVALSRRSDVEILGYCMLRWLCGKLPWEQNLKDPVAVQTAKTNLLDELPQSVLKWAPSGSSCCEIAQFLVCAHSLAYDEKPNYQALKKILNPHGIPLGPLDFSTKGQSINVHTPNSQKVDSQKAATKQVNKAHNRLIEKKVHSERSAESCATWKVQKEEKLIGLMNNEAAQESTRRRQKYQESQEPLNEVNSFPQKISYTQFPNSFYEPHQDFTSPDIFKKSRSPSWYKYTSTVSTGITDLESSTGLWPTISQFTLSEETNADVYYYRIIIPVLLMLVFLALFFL
The target of test [7] is Mitogen-activated protein kinase 10 (Homo sapiens, UniProt P53779). Nature of the test: Selectivity interaction (Kinase panel (DSF assay)) EUB0001558a MAPK10. Background: In DSF a fluorescence change marks the thermal transition of the protein.
Chain of Mitogen-activated protein kinase 10 (P53779 whole entry): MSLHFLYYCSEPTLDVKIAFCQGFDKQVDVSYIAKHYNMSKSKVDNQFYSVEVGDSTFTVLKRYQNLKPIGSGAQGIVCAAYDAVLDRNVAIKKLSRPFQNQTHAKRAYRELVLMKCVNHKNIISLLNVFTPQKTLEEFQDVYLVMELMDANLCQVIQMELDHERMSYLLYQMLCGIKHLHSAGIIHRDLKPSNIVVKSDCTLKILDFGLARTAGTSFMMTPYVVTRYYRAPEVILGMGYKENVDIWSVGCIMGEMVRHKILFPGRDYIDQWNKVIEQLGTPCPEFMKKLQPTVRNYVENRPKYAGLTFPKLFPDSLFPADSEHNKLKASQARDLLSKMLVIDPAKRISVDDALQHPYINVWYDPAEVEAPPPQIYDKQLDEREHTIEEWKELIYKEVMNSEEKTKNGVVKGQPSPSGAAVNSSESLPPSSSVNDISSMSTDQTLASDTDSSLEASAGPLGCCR
In test [8] the target is T2, Ephrin type-B receptor 2 (Homo sapiens) (UniProt P29323).
T2 sequence (whole entry): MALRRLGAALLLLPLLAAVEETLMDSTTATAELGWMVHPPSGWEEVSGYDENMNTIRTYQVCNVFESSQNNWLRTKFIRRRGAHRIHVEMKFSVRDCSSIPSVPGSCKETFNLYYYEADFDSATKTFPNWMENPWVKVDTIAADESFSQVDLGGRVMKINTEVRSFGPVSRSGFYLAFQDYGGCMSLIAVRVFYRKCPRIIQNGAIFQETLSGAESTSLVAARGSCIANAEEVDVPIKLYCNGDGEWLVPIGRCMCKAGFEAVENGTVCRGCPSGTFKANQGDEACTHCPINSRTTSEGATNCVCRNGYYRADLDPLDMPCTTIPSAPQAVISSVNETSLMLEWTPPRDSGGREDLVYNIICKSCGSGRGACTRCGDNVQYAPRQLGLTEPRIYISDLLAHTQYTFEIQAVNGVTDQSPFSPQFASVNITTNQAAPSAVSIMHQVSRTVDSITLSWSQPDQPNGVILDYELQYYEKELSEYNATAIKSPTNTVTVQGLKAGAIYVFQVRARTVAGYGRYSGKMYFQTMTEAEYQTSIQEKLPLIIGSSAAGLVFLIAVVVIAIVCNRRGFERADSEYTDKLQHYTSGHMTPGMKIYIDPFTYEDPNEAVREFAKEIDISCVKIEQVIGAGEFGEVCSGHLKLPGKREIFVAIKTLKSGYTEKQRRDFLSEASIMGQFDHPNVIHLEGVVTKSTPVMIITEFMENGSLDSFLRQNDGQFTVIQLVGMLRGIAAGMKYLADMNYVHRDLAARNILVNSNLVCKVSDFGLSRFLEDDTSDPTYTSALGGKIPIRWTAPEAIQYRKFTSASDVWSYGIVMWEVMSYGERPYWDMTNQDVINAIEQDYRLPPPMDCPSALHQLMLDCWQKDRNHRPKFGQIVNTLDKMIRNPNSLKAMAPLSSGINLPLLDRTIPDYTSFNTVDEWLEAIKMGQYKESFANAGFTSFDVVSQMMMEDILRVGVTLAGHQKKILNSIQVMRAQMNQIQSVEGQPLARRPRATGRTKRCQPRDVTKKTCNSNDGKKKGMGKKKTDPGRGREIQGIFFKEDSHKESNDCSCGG
Put plainly: Selectivity interaction (KinomeScan (DiscoverX)) EUB0001079a EPHB2. The note with it: at 1 µM.

Chain of Cyclin-dependent kinase 7 (P50613 whole entry): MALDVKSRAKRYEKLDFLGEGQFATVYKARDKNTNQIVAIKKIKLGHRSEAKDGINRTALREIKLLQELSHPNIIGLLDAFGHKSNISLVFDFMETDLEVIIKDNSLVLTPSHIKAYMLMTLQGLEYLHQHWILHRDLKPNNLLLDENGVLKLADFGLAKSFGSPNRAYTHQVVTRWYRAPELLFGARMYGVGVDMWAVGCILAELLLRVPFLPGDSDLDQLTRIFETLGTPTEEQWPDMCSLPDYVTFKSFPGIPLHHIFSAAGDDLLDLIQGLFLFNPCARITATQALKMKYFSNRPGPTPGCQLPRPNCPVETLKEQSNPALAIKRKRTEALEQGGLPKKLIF
Chain of eIF-2-alpha kinase GCN2 (Homo sapiens) (Q9P2K8 whole entry): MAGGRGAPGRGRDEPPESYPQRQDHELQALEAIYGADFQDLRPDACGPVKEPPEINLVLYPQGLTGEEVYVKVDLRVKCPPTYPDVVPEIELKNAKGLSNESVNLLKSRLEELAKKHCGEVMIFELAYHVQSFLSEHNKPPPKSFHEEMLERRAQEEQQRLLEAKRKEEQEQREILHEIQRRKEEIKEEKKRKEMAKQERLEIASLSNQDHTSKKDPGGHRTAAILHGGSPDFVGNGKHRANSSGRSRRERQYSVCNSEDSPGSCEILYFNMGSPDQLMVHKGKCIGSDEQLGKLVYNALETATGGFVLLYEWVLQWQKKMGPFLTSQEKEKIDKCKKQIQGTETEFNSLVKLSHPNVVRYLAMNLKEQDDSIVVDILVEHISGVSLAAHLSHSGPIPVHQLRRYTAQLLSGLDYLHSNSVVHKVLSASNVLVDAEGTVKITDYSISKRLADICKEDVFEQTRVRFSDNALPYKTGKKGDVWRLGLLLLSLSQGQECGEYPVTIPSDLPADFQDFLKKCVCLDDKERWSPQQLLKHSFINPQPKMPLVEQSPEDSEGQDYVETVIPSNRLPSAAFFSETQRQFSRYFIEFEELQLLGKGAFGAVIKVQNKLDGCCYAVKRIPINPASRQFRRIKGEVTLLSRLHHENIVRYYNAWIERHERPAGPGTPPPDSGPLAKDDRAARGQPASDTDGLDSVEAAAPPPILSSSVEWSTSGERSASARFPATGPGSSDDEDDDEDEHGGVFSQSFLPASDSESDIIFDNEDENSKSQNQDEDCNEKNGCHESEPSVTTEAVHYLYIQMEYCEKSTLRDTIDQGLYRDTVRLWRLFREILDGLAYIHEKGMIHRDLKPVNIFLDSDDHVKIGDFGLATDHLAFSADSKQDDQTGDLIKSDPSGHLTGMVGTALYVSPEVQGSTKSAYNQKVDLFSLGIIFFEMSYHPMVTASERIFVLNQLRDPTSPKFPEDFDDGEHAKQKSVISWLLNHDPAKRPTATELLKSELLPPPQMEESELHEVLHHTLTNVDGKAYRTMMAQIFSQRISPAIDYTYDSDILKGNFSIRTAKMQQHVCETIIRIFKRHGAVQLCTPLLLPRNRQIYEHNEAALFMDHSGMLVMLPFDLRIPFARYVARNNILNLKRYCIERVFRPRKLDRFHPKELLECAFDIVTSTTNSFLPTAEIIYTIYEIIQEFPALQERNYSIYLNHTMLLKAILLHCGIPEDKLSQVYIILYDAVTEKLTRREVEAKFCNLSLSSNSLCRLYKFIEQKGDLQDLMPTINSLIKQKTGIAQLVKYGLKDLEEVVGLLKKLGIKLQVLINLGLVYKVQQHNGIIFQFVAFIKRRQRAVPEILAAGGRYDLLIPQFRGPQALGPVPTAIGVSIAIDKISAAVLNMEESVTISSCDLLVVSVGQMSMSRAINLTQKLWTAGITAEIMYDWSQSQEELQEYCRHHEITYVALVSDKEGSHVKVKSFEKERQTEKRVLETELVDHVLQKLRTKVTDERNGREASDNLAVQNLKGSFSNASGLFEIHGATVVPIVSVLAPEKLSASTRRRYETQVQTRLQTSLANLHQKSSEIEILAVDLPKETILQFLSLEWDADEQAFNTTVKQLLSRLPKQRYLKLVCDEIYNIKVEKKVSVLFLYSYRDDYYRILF
Chain of Serine/threonine-protein kinase MARK2 (Homo sapiens) (Q7KZI7 whole entry): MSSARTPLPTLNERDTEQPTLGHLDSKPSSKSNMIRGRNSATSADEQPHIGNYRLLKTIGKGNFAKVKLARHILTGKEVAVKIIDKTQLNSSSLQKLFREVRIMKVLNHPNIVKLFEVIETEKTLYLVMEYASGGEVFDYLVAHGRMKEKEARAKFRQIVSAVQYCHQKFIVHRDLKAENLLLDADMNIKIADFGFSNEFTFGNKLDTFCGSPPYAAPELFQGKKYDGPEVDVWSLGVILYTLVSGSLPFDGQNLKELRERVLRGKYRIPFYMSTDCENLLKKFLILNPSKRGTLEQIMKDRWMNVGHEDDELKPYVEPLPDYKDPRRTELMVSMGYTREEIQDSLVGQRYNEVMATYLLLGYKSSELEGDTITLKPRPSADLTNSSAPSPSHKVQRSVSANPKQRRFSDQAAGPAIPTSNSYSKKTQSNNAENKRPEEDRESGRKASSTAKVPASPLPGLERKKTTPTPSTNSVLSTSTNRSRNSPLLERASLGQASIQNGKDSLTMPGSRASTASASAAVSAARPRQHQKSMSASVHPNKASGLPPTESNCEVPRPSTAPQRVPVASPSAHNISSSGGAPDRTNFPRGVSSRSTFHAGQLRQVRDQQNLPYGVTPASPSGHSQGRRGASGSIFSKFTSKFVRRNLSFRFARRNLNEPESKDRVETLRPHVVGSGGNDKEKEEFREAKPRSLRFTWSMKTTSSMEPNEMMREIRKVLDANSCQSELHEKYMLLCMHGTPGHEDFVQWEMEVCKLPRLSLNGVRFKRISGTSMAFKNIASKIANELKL

For `N#Cc1cccc(-c2c[nH]c3ncnc(N4CCOCC4)c23)c1`, in test [1], the % of inhibition came to 1%.

As to `CC[C@@H]1[C@H](F)C(=O)N[C@@H]1COc1nccc2cc(C(N)=O)c(OC)cc12` [ZIMLOVISERTIB], the % of inhibition in test [2] was 48.9%; in test [3], 3.37%.

In the case of `C=CC(=O)Nc1cc(-n2c(=O)ccc3cnc4ccc(-c5ccc(NS(C)(=O)=O)cc5)cc4c32)ccc1C`, the % of control in test [4] (at 1 µM) stood at 79%; in test [4] (at 10 µM), 26%.

With `CN(C)CCOc1ccc(-c2nc(-c3ccncc3)c(-c3ccc4c(c3)CC/C4=N\O)[nH]2)cc1`, the % of control in test [5] and in test [6] was 94% in each case.

Consider `CC(C)(O)[C@H](F)CN1Cc2cc(NC(=O)c3cnn4cccnc34)c(N3CCOCC3)cc2C1=O`, for which the dTM in test [7] stood at 1.5 K.

`Nc1cnc(N2CCc3cc(S(=O)(=O)Nc4c(F)cc(Cl)cc4F)cc(N4CCCC4=O)c32)nc1` [TP-020n] displayed a % of control in test [8] of 87%.
